{"source": "patent US4820716A", "about": "“7-(1-Pyrrolidinyl)-quinolonecarboxylic acid derivatives” (Bayer Aktiengesellschaft, priority 1986, dated 1989)", "assay_in_all_cases": "MIC, agar dilution test (multipoint inoculator)", "assay_type_in_all_cases": "cell-based", "key": {"[1]": {"system": "Proteus morg.", "settings": "Isosensitest medium pH 7.2", "source_text": "(§1) *Agar dilution test (multipoint inoculator) Isosensitest medium pH 7.2"}, "[2]": {"system": "Psdm. aeruginosa", "settings": "Pseudomonas aeruginosa, Isosensitest medium pH 7.2", "source_text": "as §1"}, "[3]": {"system": "Strepto. faecalis", "settings": "Isosensitest medium pH 7.2", "source_text": "as §1"}, "[4]": {"system": "Proteus vulg.", "source_text": "as §1"}, "[5]": {"system": "Providencia stuartei", "source_text": "as §1"}, "[6]": {"system": "Serratia marc.", "settings": "strain 16040, Isosensitest medium pH 7.2", "source_text": "as §1"}, "[7]": {"system": "Staph. aureus", "settings": "Staphylococcus aureus, Isosensitest medium pH 7.2", "source_text": "as §1"}, "[8]": {"system": "Proteus mir.", "settings": "Isosensitest medium pH 7.2", "source_text": "as §1"}, "[9]": {"system": "E. coli", "settings": "Escherichia coli, Isosensitest medium pH 7.2", "source_text": "as §1"}, "[10]": {"system": "Klebsiella pneum.", "source_text": "as §1"}, "[11]": {"settings": "pH 7.2, strain 12012, Isosensitest medium pH 7.2"}, "[12]": {"settings": "pH 7.2, strain 12052, Isosensitest medium pH 7.2"}, "[13]": {"settings": "pH 7.2, strain 455/7, read-out: MIC"}, "[14]": {"settings": "pH 7.2, strain Neumann, read-out: MIC"}, "[15]": {"settings": "strain 1017, Isosensitest medium pH 7.2, read-out: MIC"}, "[16]": {"settings": "pH 7.2, strain 8175, read-out: MIC"}, "[17]": {"settings": "pH 7.2, strain 8223, read-out: MIC"}, "[18]": {"settings": "pH 7.2, strain 57USA, Isosensitest medium pH 7.2, read-out: MIC"}, "[19]": {"settings": "pH 7.2, strain 63, Isosensitest medium pH 7.2, read-out: MIC"}, "[20]": {"settings": "pH 7.2, strain 6179, Isosensitest medium pH 7.2, read-out: MIC"}, "[21]": {"settings": "pH 7.2, strain 6318, Isosensitest medium pH 7.2, read-out: MIC"}, "[22]": {"settings": "pH 7.2, strain 8085, Isosensitest medium pH 7.2, read-out: MIC"}}, "note": "Like-named read-outs stand apart in the source and are kept apart here."}
{"smiles": "O=C(O)c1cn(C2CC2)c2cc(N3CCNCC3)c(F)cc2c1=O", "note": "[Ciprofloxacin, 1-cyclopropyl-6-fluoro-1,4-dihydro-4-oxo-7-(1-piperazinyl)-3-quinolinecarboxylic acid, reference compound]", "values": [{"measurement": "MIC", "setting": "[1]; pH 7.2, strain 932", "result": "< 0.015", "unit": "µg/mL"}, {"measurement": "MIC", "setting": "[1]; pH 7.2, strain 11006", "result": "≤ 0.015", "unit": "µg/mL"}, {"measurement": "MIC", "setting": "[2]; pH 7.2, strain Ellsworth", "result": 0.06, "unit": "µg/mL"}, {"measurement": "MIC", "setting": "[2]; pH 7.2, strain Walter", "result": 0.5, "unit": "µg/mL"}, {"measurement": "MIC", "setting": "[3]; pH 7.2, strain 9790", "result": 0.5, "unit": "µg/mL"}, {"measurement": "MIC", "setting": "[3]; pH 7.2, strain 27101", "result": 0.25, "unit": "µg/mL"}, {"measurement": "MIC", "setting": "[4]; pH 7.2", "result": "≤ 0.015", "unit": "µg/mL"}, {"measurement": "MIC", "setting": "[5]; [11]", "result": "≤ 0.015", "unit": "µg/mL"}, {"measurement": "MIC", "setting": "[5]; [12]", "result": 16, "unit": "µg/mL"}, {"measurement": "MIC", "setting": "[6]", "result": 8, "unit": "µg/mL"}, {"measurement": "MIC", "setting": "[7]; pH 7.2, strain 133", "result": 0.25, "unit": "µg/mL"}, {"measurement": "MIC", "setting": "[7]; pH 7.2, strain 1756", "result": 0.25, "unit": "µg/mL"}, {"measurement": "MIC", "setting": "[7]; pH 7.2, strain FK422", "result": 0.5, "unit": "µg/mL"}, {"measurement": "MIC", "setting": "[8]; pH 7.2, strain 8175", "result": 0.06, "unit": "µg/mL"}, {"measurement": "MIC", "setting": "[8]; pH 7.2, strain 8223", "result": 4, "unit": "µg/mL"}, {"measurement": "MIC", "setting": "[9]; [13]", "result": 1, "unit": "µg/mL"}, {"measurement": "MIC", "setting": "[9]; pH 7.2, strain 4418, read-out: MIC", "result": "≤ 0.015", "unit": "µg/mL"}, {"measurement": "MIC", "setting": "[9]; pH 7.2, strain A261, read-out: MIC", "result": "≤ 0.015", "unit": "µg/mL"}, {"measurement": "MIC", "setting": "[9]; [14]", "result": "≤ 0.015", "unit": "µg/mL"}, {"measurement": "MIC", "setting": "[9]; pH 7.2, strain T7, read-out: MIC", "result": "≤ 0.015", "unit": "µg/mL"}, {"measurement": "MIC", "setting": "[10]; pH 7.2, strain 57USA, Isosensitest medium pH 7.2", "result": "≤ 0.015", "unit": "µg/mL"}, {"measurement": "MIC", "setting": "[10]; pH 7.2, strain 63, Isosensitest medium pH 7.2", "result": 0.03, "unit": "µg/mL"}, {"measurement": "MIC", "setting": "[10]; pH 7.2, strain 6318, Isosensitest medium pH 7.2", "result": 0.06, "unit": "µg/mL"}, {"measurement": "MIC", "setting": "[10]; pH 7.2, strain 8085, Isosensitest medium pH 7.2", "result": "≤ 0.015", "unit": "µg/mL"}]}
{"smiles": "O=C(O)c1cn(C2CC2)c2c(Cl)c(N3CCC(O)C3)c(F)cc2c1=O", "note": "(centres unmarked) [Example 3, 8-chloro-1-cyclopropyl-7-fluoro-1,4-dihydro-7-(3-hydroxy-1-pyrrolidinyl)-4-oxo-3-quinolinecarboxylic acid]", "values": [{"measurement": "MIC", "setting": "[1]; strain 932, read-out: MIC", "result": "≤ 0.015", "unit": "µg/mL"}, {"measurement": "MIC", "setting": "[1]; strain 11006", "result": "≤ 0.015", "unit": "µg/mL"}, {"measurement": "MIC", "setting": "[2]; pH 7.2, strain Ellsworth", "result": "≤ 0.015", "unit": "µg/mL"}, {"measurement": "MIC", "setting": "[2]; pH 7.2, strain Walter", "result": 0.25, "unit": "µg/mL"}, {"measurement": "MIC", "setting": "[3]; pH 7.2, strain 9790", "result": "≤ 0.015", "unit": "µg/mL"}, {"measurement": "MIC", "setting": "[3]; pH 7.2, strain 27101", "result": "≤ 0.015", "unit": "µg/mL"}, {"measurement": "MIC", "setting": "[4]; [15]", "result": "≤ 0.015", "unit": "µg/mL"}, {"measurement": "MIC", "setting": "[5]; [11]", "result": "≤ 0.015", "unit": "µg/mL"}, {"measurement": "MIC", "setting": "[5]; [12]", "result": 1, "unit": "µg/mL"}, {"measurement": "MIC", "setting": "[6]", "result": 1, "unit": "µg/mL"}, {"measurement": "MIC", "setting": "[7]; pH 7.2, strain 133", "result": "≤ 0.015", "unit": "µg/mL"}, {"measurement": "MIC", "setting": "[7]; pH 7.2, strain 1756", "result": "≤ 0.015", "unit": "µg/mL"}, {"measurement": "MIC", "setting": "[7]; pH 7.2, strain FK422", "result": "≤ 0.015", "unit": "µg/mL"}, {"measurement": "MIC", "setting": "[8]; [16]", "result": "≤ 0.015", "unit": "µg/mL"}, {"measurement": "MIC", "setting": "[8]; [17]", "result": 0.06, "unit": "µg/mL"}, {"measurement": "MIC", "setting": "[9]; [13]", "result": 0.25, "unit": "µg/mL"}, {"measurement": "MIC", "setting": "[9]; pH 7.2, strain 4418", "result": "≤ 0.015", "unit": "µg/mL"}, {"measurement": "MIC", "setting": "[9]; pH 7.2, strain A261", "result": "≤ 0.015", "unit": "µg/mL"}, {"measurement": "MIC", "setting": "[9]; [14]", "result": "≤ 0.015", "unit": "µg/mL"}, {"measurement": "MIC", "setting": "[9]; pH 7.2, strain T7", "result": "≤ 0.015", "unit": "µg/mL"}, {"measurement": "MIC", "setting": "[10]; [18]", "result": "≤ 0.015", "unit": "µg/mL"}, {"measurement": "MIC", "setting": "[10]; [19]", "result": "≤ 0.015", "unit": "µg/mL"}, {"measurement": "MIC", "setting": "[10]; [20]", "result": "< 0.015", "unit": "µg/mL"}, {"measurement": "MIC", "setting": "[10]; [21]", "result": "≤ 0.015", "unit": "µg/mL"}, {"measurement": "MIC", "setting": "[10]; [22]", "result": "≤ 0.015", "unit": "µg/mL"}]}
{"smiles": "O=C(O)c1cn(C2CC2)c2cc(N3CCC(O)C3)c(F)cc2c1=O", "note": "(racemic) [Example 1, 1-cyclopropyl-6-fluoro-1,4-dihydro-7-(3-hydroxy-1-pyrrolidinyl)-4-oxo-3-quinolinecarboxylic acid]", "values": [{"measurement": "MIC", "setting": "[1]; strain 932, read-out: MIC", "result": "≤ 0.015", "unit": "µg/mL"}, {"measurement": "MIC", "setting": "[1]; strain 11006", "result": "≤ 0.015", "unit": "µg/mL"}, {"measurement": "MIC", "setting": "[2]; pH 7.2, strain Ellsworth", "result": 0.125, "unit": "µg/mL"}, {"measurement": "MIC", "setting": "[2]; pH 7.2, strain Walter", "result": 1, "unit": "µg/mL"}, {"measurement": "MIC", "setting": "[3]; pH 7.2, strain 9790", "result": 0.125, "unit": "µg/mL"}, {"measurement": "MIC", "setting": "[3]; pH 7.2, strain 27101", "result": 0.125, "unit": "µg/mL"}, {"measurement": "MIC", "setting": "[4]; [15]", "result": "≤ 0.015", "unit": "µg/mL"}, {"measurement": "MIC", "setting": "[5]; [11]", "result": "≤ 0.015", "unit": "µg/mL"}, {"measurement": "MIC", "setting": "[5]; [12]", "result": 32, "unit": "µg/mL"}, {"measurement": "MIC", "setting": "[6]", "result": 32, "unit": "µg/mL"}, {"measurement": "MIC", "setting": "[7]; pH 7.2, strain 133", "result": "≤ 0.015", "unit": "µg/mL"}, {"measurement": "MIC", "setting": "[7]; pH 7.2, strain 1756", "result": "≤ 0.015", "unit": "µg/mL"}, {"measurement": "MIC", "setting": "[7]; pH 7.2, strain FK422", "result": "≤ 0.015", "unit": "µg/mL"}, {"measurement": "MIC", "setting": "[8]; [16]", "result": 0.06, "unit": "µg/mL"}, {"measurement": "MIC", "setting": "[8]; [17]", "result": 2, "unit": "µg/mL"}, {"measurement": "MIC", "setting": "[9]; [13]", "result": 32, "unit": "µg/mL"}, {"measurement": "MIC", "setting": "[9]; pH 7.2, strain 4418", "result": "< 0.015", "unit": "µg/mL"}, {"measurement": "MIC", "setting": "[9]; pH 7.2, strain A261", "result": "< 0.015", "unit": "µg/mL"}, {"measurement": "MIC", "setting": "[9]; [14]", "result": "≤ 0.015", "unit": "µg/mL"}, {"measurement": "MIC", "setting": "[9]; pH 7.2, strain T7", "result": "< 0.015", "unit": "µg/mL"}, {"measurement": "MIC", "setting": "[10]; [18]", "result": 0.125, "unit": "µg/mL"}, {"measurement": "MIC", "setting": "[10]; [19]", "result": "< 0.015", "unit": "µg/mL"}, {"measurement": "MIC", "setting": "[10]; [20]", "result": 0.125, "unit": "µg/mL"}, {"measurement": "MIC", "setting": "[10]; [21]", "result": 0.06, "unit": "µg/mL"}, {"measurement": "MIC", "setting": "[10]; [22]", "result": "≤ 0.015", "unit": "µg/mL"}]}
